These results are taken from patent US20220339178A1, “COMPOSITIONS AND METHODS FOR COGNITIVE PROTECTION OF POLLINATORS AGAINST PESTICIDES” (priority 2019, published 2022).

In test [1] the test system is bumblebee Bombus impatiens. Description: Olfactory conditioning of PER in bumblebees: self-administered rutin vs chronic fipronil. The class given is in vivo. As to conditions: bumblebees; score 0-10; self-administered 1 μM rutin six days; 6 nM fipronil feeder for the last three days (chronic). On the procedure:
One colony of the bumblebee Bombus impatiens (Koppert Inc) was kept in laboratory conditions. Bees received pollen inside the nests and foraged to a 1M sugar-water feeder outside of the nest. Bees were collected while on the feeder and iced anesthetized to then be randomly assigned to one of four plastic containers where self-administration of one of two solutions was allowed to 10 bees out of two feeders (glass vials with 500 μL of solution each): i) 1 M sucrose water or ii) 1 μM Rutin (Sigma-Aldrich R5143) diluted in 1M sucrose water. Feeders were refilled each day for three days. On the night of the third day, one of the vials was replaced by a new one with one of two solutions: i) 1 M sucrose water or ii) 1M sucrose water+6 nM fipronil. Feeders were refilled each day for three more days, thus providing a chronic exposure to fipronil. On the night of the […] day, bees were iced anesthetized and yolked restrained in plastic pipettes. Thus, bees belonged to one of four treatments:
Control: self-administered sucrose water for six days
Rut: self-administered rutin for six days
Fipro: self-administered sucrose water for three days followed by three days of self-administered sucrose water (one feeder) and fipronil (one feeder).
Rut+Fipro: self-administered rutin for three days followed by three days of self-administered rutin (one feeder) and fipronil (one feeder).
All bees were blind-trained using olfactory conditioning of the proboscis extension response (PER). Briefly, bees were exposed to a presentation of 1-nonanol (Sigma-Aldrich) for 10 s. After 7 s of the onset of the odor presentation, the antenna was stimulated with 1.5 M sugar-water to elicit the PER. Following the PER, the bee was allowed to drink sugar-water for 3 s. Each paired presentation was considered a training trial and each individual received eleven training trials with an average intertrial interval of 10 minutes. After training, all bees were fed 20 μL of 1M sugar water and maintained in plastic boxes for 24 h until the retention test. […] Twenty-four hours after the last training trial the bees were presented with the conditioned odor for 10 s.
Learning for each individual was quantified as the number of conditioned PER responses across the trials. Thus, for each bee a learning score between zero and ten (0-10) was recorded.
Multiple comparisons were then run comparing learning score relative to Control bees using a non-parametric one or two-tailed Steel Method depending upon predictions. These comparisons informed us about the predicted impairment produced by the fipronil, the predicted innocuous effect of the rutin and the potential level of protection. Error due to multiple comparisons was controlled using the False Discovery Rate method (FDR-two stage sharpened method). In all cases corrected p-values (q-values) are presented.
Memory retention was quantified as a nominal variable (yes/no). Data were compared across treatments using a Chi-square test, followed by multiple comparisons of all treatments vs. Control. Error due to multiple comparisons was controlled using the FDR as indicated above. In all cases corrected p-values (q values) are presented.
Latency was quantified as a continuous variable between 0.5 s and 10 s. […]

Test [2] concerns Honey bee foragers (Apis mellifera scutellata). Nature of the test: Sucrose responsiveness (sensory sensitivity) of honey bees: flavonoids vs deltamethrin. The class given is in vivo. The note with it: honey bees; rutin 1 μM, kaempferol 131.7 μM or both for one day; 17.81 μM deltamethrin next day; pooled score. On the procedure:
Honey bee foragers (Apis mellifera scutellata) were captured from established hives at the Apiary of the Universidad del Rosario (Bogota, Colombia) between 08:00 h and 10:00 h. Bees were ice-anesthetized and harnessed in plastic tubes and maintained under laboratory conditions for the duration of the experiment (three days).
On the first day, bees were randomly allocated to one of four treatments administered as two doses (morning: 20 μL; afternoon:10 μL): i) Control (1M sucrose solution), ii) Rutin 1 μM (Sigma-Aldrich R5143), iii) Kaempferol 131.7 μM (Sigma-Aldrich K0133), iv) Rutin-Kaempferol composition (final concentration of […] rutin and 131.7 μM kaempferol). All solutions were diluted in 1M sucrose solution to the concentrations described above. The next day, bees from each group were randomly assigned to one of two treatments: […] of 1M sucrose solution or 17.81 μM deltamethrin (Dinastia Bayer). Thus, bees belonged to one of eight treatments: i) Sucrose water (Control), ii) Rutin (Rut), iii) Kaempferol (Kaemp), iv) Kaempferol+Rutin (Kaemp+Rut), v) Deltamethrin (Delta), vi) Rutin+Deltamethrin (Rut+Delta), vii) Kaempferol+Deltamethrin (Kaemp+Delta), viii) Kaempferol+Rutin+Deltamethrin ((Kaemp+Rut)+Delta). All solutions were diluted in 1M sugar water to the concentrations described above.
Sensory sensitivity was evaluated using responsiveness to sucrose, a proxy of resource exploitation by foragers. On the second day, bees of the eight treatments described above were tested five times for their response threshold (0 h, 1 h, 2 h, 3 h and 4 h). The first measure (0 h) was done prior to pesticide administration. Bees were tested with an ascending sucrose concentration of 0.1, 0.3, 1, 3, 10 and 30% (w/w). Between each concentration, the bees were presented with pure water as a control for potential sensitization or habituation (Pankiw et al., Behav Ecol Sociobiol (2000) 47:265-267). The inter-trial time between the presentation of each sucrose concentration was at least 4 minutes. For each presentation, the reflexive extension of the proboscis (tongue) of the bee, after antennal stimulation with the solution was recorded. After the last measure (4 h), bees were fed with 10 μL of 1M sucrose solution and maintained until the next day for a final test (24 hours after pesticide administration).
For each bee, a responsiveness score was determined (0-7) 0 h, 1 h, 2 h, 3 h, 4 h and 24 h, and a pooled scored (0-42). Normal distribution of the scores was tested using Shapiro-Wilk W Test for the null hypothesis that data is from a Normal distribution. […] Thus, non-parametric tests were used for comparisons across treatments and for multiple comparisons. Overall changes of responses across different concentrations were evaluated using repeated-measured MANOVA. Error associated with multiple comparisons was controlled using the Two-stage sharpened False Discovery Rate, and corrected p-values (q-values) are presented. Data were explored for outliers using a single run of Robust Fit outliers test. All analyses were conducted using JMP v.14 (SAS Institute Inc.)

In the case of `C[C@@H]1O[C@@H](OC[C@H]2O[C@@H](Oc3c(-c4ccc(O)c(O)c4)oc4cc(O)cc(O)c4c3=O)[C@H](O)[C@@H](O)[C@@H]2O)[C@H](O)[C@H](O)[C@H]1O` [Rutin], the “learning score relative to Control bees” value in test [1] is listed as “not significantly different”. Further, in test [2], the “sensitivity (sucrose responsiveness, total PER score) relative to Control bees” value is “not significantly affected”.
